# According to the supplement of paper PMC10331698:
# ± gives the standard deviation of the averaged measurements.
# How the values were obtained:
# Test in all cases: level (log10 ratio to DMSO vehicle control); higher = higher biomarker level / cell amount than vehicle control
# Settings in all cases: in DMSO
# [1] = compound: OCC(F)(F)C(F)(F)C(F)(F)C(F)(F)C(F)(F)C(F)F [1H,1H,7H-Dodecafluoro-1-heptanol]
# Protocol: (§1)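 BioMAP Diversity Plus panel of 12 human primary cell co-culture systems (3C, 4H, LPS, SAg, BT, BF4T, BE3C, CASM3C, HDF3CGF, KF3CT, MyoF, Mphg). Compounds were added 1 h before stimulation and left for 24 h (MyoF 48 h; BT 72 h for soluble read-outs or 6 d for IgG). Biomarkers were read by ELISA, cytotoxicity by SRB, PBMC viability and proliferation by Alamar Blue. Each well value was divided by the mean of 8 DMSO control wells on the same plate and log10 transformed; duplicate blinded samples were tested at 4 concentrations.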
# [2] = compound: O=P(O)(O)CCC(F)(F)C(F)(F)C(F)(F)C(F)(F)C(F)(F)C(F)(F)C(F)(F)C(F)(F)F [((Perfluorooctyl)ethyl)phosphonic acid]
# Protocol: as §1
# Hexafluoroglutaric acid = compound: O=C(O)C(F)(F)C(F)(F)C(F)(F)C(=O)O [Hexafluoroglutaric acid]
# Protocol: as §1
# [3] = compound: O=C(O)C(F)(F)C(F)(F)C(F)(F)C(F)(F)C(F)(F)C(F)(F)C(F)(F)C(F)(F)C(F)(F)C(F)(F)C(F)(F)C(F)(F)F [Perfluorotridecanoic acid]
# Protocol: as §1
# [4] = compound: O=C(O)CCC(F)(F)C(F)(F)C(F)(F)F [3:3 Fluorotelomer carboxylic acid]
# Protocol: as §1
# [5] = compound: O=S(=O)(O)C(F)(F)C(F)(F)C(F)(F)C(F)(F)C(F)(F)C(F)(F)C(F)(F)C(F)(F)F [Potassium perfluorooctanesulfonate]
# Protocol: as §1
Test System,level (log10) ([1]; 6700 nM),level (log10) ([1]; 20000 nM),level (log10) ([1]; 60000 nM),level (log10) ([2]; 6700 nM),level (log10) ([2]; 20000 nM),level (log10) ([2]; 60000 nM),level (log10) (Hexafluoroglutaric acid; 6700 nM),level (log10) (Hexafluoroglutaric acid; 20000 nM),level (log10) (Hexafluoroglutaric acid; 60000 nM),level (log10) ([3]; 1500 nM),level (log10) ([3]; 4400 nM),level (log10) ([3]; 13000 nM),level (log10) ([3]; 40000 nM),level (log10) ([4]; 6700 nM),level (log10) ([4]; 20000 nM),level (log10) ([4]; 60000 nM),level (log10) ([5]; 6700 nM),level (log10) ([5]; 20000 nM),level (log10) ([5]; 60000 nM)
KF3CT:IL-1alpha,-0.016 ± 0.025,-0.0195 ± 0.032,-0.0115 ± 0.043,0.0025 ± 0.019,0.0035 ± 0.011,0.0025 ± 0.029,-0.021 ± 0.014,0.012 ± 0.013,-0.0395 ± 0.012,-0.025 ± 0.0099,-0.0435 ± 0.0035,-0.074 ± 0.018,-0.1075 ± 0.00071,-0.0065 ± 0.059,0.0035 ± 0.023,0.0135 ± 0.019,-0.0105 ± 0.016,-0.0085 ± 0.026,-0.029 ± 0.0028
HDF3CGF:TIMP-1,-0.015 ± 0.027,-0.0055 ± 0.033,0.011 ± 0.044,-0.03 ± 0.0057,-0.06 ± 0.018,-0.0575 ± 0.044,-0.0385 ± 0.026,-0.02 ± 0.072,-0.045 ± 0.073,0.027 ± 0.028,-0.0075 ± 0.044,-0.023 ± 0.069,-0.04 ± 0.051,0.0025 ± 0.019,0.004,0.0015 ± 0.0035,0.001 ± 0.024,-0.001 ± 0.016,0.097 ± 0.061
lMphg:CCL3/MIP-1alpha,0.0185 ± 0.063,0.0115 ± 0.019,0.044 ± 0.0085,-0.0425 ± 0.026,-0.0475 ± 0.0021,-0.039 ± 0.0085,-0.0025 ± 0.0078,0.0125 ± 0.015,-0.024 ± 0.052,0.0065 ± 0.023,-0.0135 ± 0.013,0.004 ± 0.021,0.0345 ± 0.032,-0.0105 ± 0.047,-0.027 ± 0.047,0.002 ± 0.02,-0.0105 ± 0.0035,-0.0255 ± 0.0092,-0.016 ± 0.02
MyoF:Collagen IV,-0.0115 ± 0.015,-0.0025 ± 0.018,0.011 ± 0.025,-0.0005 ± 0.013,0.012 ± 0.025,-0.01 ± 0.057,-0.004 ± 0.013,0.002 ± 0.021,-0.0055 ± 0.0064,-0.0095 ± 0.043,0.002 ± 0.018,0.004 ± 0.04,0.064 ± 0.013,-0.0275 ± 0.042,-0.029 ± 0.031,-0.004 ± 0.035,0.024 ± 0.017,0.0125 ± 0.022,0.0175 ± 0.05
HDF3CGF:TIMP-2,-0.0025 ± 0.0092,-0.0035 ± 0.0021,0.0025 ± 0.022,0.0645 ± 0.013,0.0485 ± 0.0021,-0.029 ± 0.018,-0.041 ± 0.0014,0.01 ± 0.0028,-0.0345 ± 0.0021,0.0455 ± 0.043,0.0415 ± 0.084,0.102 ± 0.019,0.0095 ± 0.013,-0.0075 ± 0.023,-0.0015 ± 0.0035,-0.0195 ± 0.0064,-0.055 ± 0.03,-0.108 ± 0.019,-0.137 ± 0.038
BE3C:PAI-I,-0.007 ± 0.0057,-0.009 ± 0.0099,-0.0105 ± 0.0078,0.015 ± 0.0014,-0.0115 ± 0.011,-0.032 ± 0.0042,-0.0205 ± 0.016,-0.014 ± 0.027,0.002 ± 0.03,0.006 ± 0.017,0.0335 ± 0.0035,-0.004 ± 0.042,-0.0285 ± 0.054,-0.0095 ± 0.00071,-0.0025 ± 0.015,0.0005 ± 0.0078,-0.0115 ± 0.012,-0.255 ± 0.03,-0.253 ± 0.037
CASM3C:PAI-I,0.004 ± 0.0057,-0.0005 ± 0.0064,0.0045 ± 0.011,-0.0035 ± 0.011,0.003 ± 0.0071,0.0015 ± 0.0078,-0.0015 ± 0.015,-0.0005 ± 0.0064,0.0075 ± 0.0064,0.005 ± 0.0085,0 ± 0.011,0.0135 ± 0.013,0.01 ± 0.0057,-0.002 ± 0.0057,-0.0035 ± 0.00071,0.009 ± 0.0014,0.009,0.004,0.0165 ± 0.0064
HDF3CGF:CXCL10/IP-10,-0.0015 ± 0.015,-0.0055 ± 0.0021,-0.011 ± 0.018,0.077 ± 0.0014,0.0255 ± 0.005,-0.0375 ± 0.005,0.0035 ± 0.021,-0.008 ± 0.0071,-0.011 ± 0.037,-0.0955 ± 0.063,-0.234 ± 0.2,-0.236 ± 0.098,-0.235 ± 0.13,-0.0005 ± 0.013,0.003 ± 0.0042,-0.011 ± 0.011,-0.0815 ± 0.03,-0.131 ± 0.06,-0.313 ± 0.044
CASM3C:CD106/VCAM-1,-0.0025 ± 0.022,-0.017 ± 0.0057,-0.017 ± 0.024,-0.0325 ± 0.00071,0 ± 0.0014,0.0335 ± 0.019,-0.0105 ± 0.03,-0.0125 ± 0.036,0.012 ± 0.011,-0.017 ± 0.05,-0.0515 ± 0.015,-0.167 ± 0.083,-0.22 ± 0.054,-0.0255 ± 0.0035,-0.03 ± 0.0057,-0.0295 ± 0.015,-0.0125 ± 0.019,-0.0175 ± 0.005,-0.104 ± 0.041
KF3CT:SRB,-0.0025 ± 0.0064,-0.001 ± 0.0042,0.002 ± 0.0085,0.0025 ± 0.0035,-0.001 ± 0.013,0.0085 ± 0.00071,-0.0055 ± 0.0021,-0.011 ± 0.0057,0.003 ± 0.018,0.0015 ± 0.00071,-0.0055 ± 0.0021,-0.0095 ± 0.0021,-0.035 ± 0.0042,-0.0085 ± 0.00071,-0.004 ± 0.0042,0.0015 ± 0.018,-0.0075 ± 0.0078,-0.011 ± 0.0014,-0.006 ± 0.0057
